Measured values as given in patent US8916702B2 (priority 2012, dated 2014).

Each compound was assayed on HCV pseudoparticles (genotype 1a HCV E1 and E2 envelope, H77C isolate) (assay: microbe, parasite or virus in culture). Conditions: Hepatitis C virus, Huh-7, 48 h, HCV pseudoparticle infection of Huh7 cells, luciferase 2 days after infection; average of duplicates.
Assay type: cell-based

| SMILES | EC50 [nM] |
| --- | --- |
| COC(=O)[C@H](CCNC(=O)C(=O)NC(C)C1CC1)NC(=O)c1ccc(Nc2nc(NC3(c4ccc(Cl)cc4)CC3)nc(OCC(F)(F)F)n2)cc1 (stereo partly drawn) [Compound 1417] | 0.16 |
| COc1ccc(NC(=O)C(=O)NC[C@H](NC(=O)c2ccc(Nc3nc(NC4(c5ccc(Cl)cc5)CC4)nc(OCC(F)(F)F)n3)cc2)C(=O)O)cc1 [Compound 1362] | 0.3 |
| COC(=O)[C@H](CCNC(=O)C(=O)Nc1ccccn1)NC(=O)c1ccc(Nc2nc(NC3(c4ccc(Cl)cc4)CC3)nc(OCC(F)(F)F)n2)cc1 [Compound 1237] | 0.77 |

Same assay, conditions: Hepatitis C virus, Huh-7, 48 h, HCV pseudoparticles (genotype 1a, H77C) in Huh7 cells; average of duplicate; luciferase 2 days after infection

| SMILES | EC50 [nM] |
| --- | --- |
| O=C(NCC[C@H](NC(=O)c1ccc(Nc2nc(NC3(c4ccc(Cl)cc4)CC3)nc(OCC(F)(F)F)n2)cc1)C(=O)O)C(=O)Nc1ccc(-c2ncco2)cc1 [Compound 3547] | 2.09 |
| COc1cc(Nc2nc(NC3(c4ccc(Cl)cc4)CC3)nc(OCC(F)(F)F)n2)ccc1C(=O)NCC(C)(C)CNC(=O)C(N)=O [Compound 3387] | 0.068 |

Same assay, conditions: Hepatitis C virus, Huh-7, 48 h, HCV pseudoparticles, Huh7 cells, luciferase 2 days after infection; average of duplicates

| SMILES | EC50 [nM] |
| --- | --- |
| Cc1ccc(NC(=O)C(=O)NCC(C)(C)CNC(=O)c2ccc(Nc3nc(NC4(c5ccc(Cl)cc5)CC4)nc(OCc4ccc(C(C)C)cc4)n3)cc2)cc1 [Compound 3839] | 0.078 |
| CN(C)CCOc1ccc(NC(=O)C(=O)NCC[C@H](NC(=O)c2ccc(Nc3nc(NC4(c5ccc(Cl)cc5)CC4)nc(OCC(F)(F)F)n3)cc2)C(=O)O)cn1 [Compound 3660] | 1.67 |
| O=C(NC[C@H](NC(=O)c1ccc(Nc2nc(NC3(c4ccc(Cl)cc4)CC3)nc(OCC(F)(F)F)n2)cc1)C(=O)O)C(=O)Nc1cccc(-c2ncc[nH]2)c1 [Compound 3765] | 0.68 |

Same assay, conditions: Hepatitis C virus, Huh-7, 48 h, read-out: Activity (EC50 class), HCV pseudoparticle infection of Huh7 cells, luciferase 2 days after infection; EC50 expressed as class A/B

| SMILES | EC50 [nM] |
| --- | --- |
| CC(C)(CNC(=O)C(=O)N1CCCCC1)CNC(=O)c1ccc(Nc2nc(NC3(c4ccc(Cl)cc4)CC3)nc(OCC(F)(F)F)n2)cc1 [Compound 1550] | 0.01 to 10 |
| COC(=O)[C@H](CCNC(=O)C(=O)NC(C)C1CC1)NC(=O)c1ccc(Nc2nc(NC3(c4ccc(Cl)cc4)CC3)nc(OCC(F)(F)F)n2)cc1 (stereo partly drawn) [Compound 1417] | 0.01 to 10 |
| COC(=O)[C@H](CCNC(=O)C(=O)Nc1cccc(O)c1)NC(=O)c1ccc(Nc2nc(NC3(c4ccc(Cl)cc4)CC3)nc(OCC(F)(F)F)n2)cc1 [Compound 1521] | 0.01 to 10 |
| CCOC(=O)[C@H](CCNC(=O)C(=O)NCC1CC1)NC(=O)c1ccc(Nc2nc(NC3(c4ccc(Cl)cc4)CC3)nc(OCC(F)(F)F)n2)cc1 [Compound 1369] | 0.01 to 10 |
| CC1CCCC(NC(=O)C(=O)NCC[C@H](NC(=O)c2ccc(Nc3nc(NC4(c5ccc(Cl)cc5)CC4)nc(OCC(F)(F)F)n3)cc2)C(=O)O)C1 (stereo partly drawn) [Compound 1125] | 0.01 to 10 |
| COC(=O)[C@H](CCNC(=O)C(=O)NC1CCCC(O)C1)NC(=O)c1ccc(Nc2nc(NC3(c4ccc(Cl)cc4)CC3)nc(OCC(F)(F)F)n2)cc1 (stereo partly drawn) [Compound 1070] | 0.01 to 10 |
| O=C(NCC1(CNC(=O)c2ccc(Nc3nc(NC4(c5ccc(Cl)cc5)CC4)nc(OCC(F)(F)F)n3)cc2)CC1)C(=O)Nc1ccc(F)cc1 [Compound 1566] | 0.01 to 10 |
| CCc1ccnn1CC1(CNC(=O)C(=O)NCC[C@H](NC(=O)c2ccc(Nc3nc(NC4(c5ccc(Cl)cc5)CC4)nc(OCC(F)(F)F)n3)cc2)C(=O)O)CC1 [Compound 1430] | 0.01 to 10 |
| COC(=O)[C@H](CCNC(=O)C(=O)Nc1ccc(Cl)cc1)NC(=O)c1ccc(Nc2nc(NC3(c4ccc(Cl)cc4)CC3)nc(OCC(F)(F)F)n2)cc1 [Compound 1515] | 0.01 to 10 |
| CC(C)(CNC(=O)C(N)=O)CNC(=O)c1ccc(Nc2nc(NC3(c4ccc(Cl)cc4)CC3)nc(OCC(F)(F)F)n2)cc1 [Compound 1552, N^1-(3-(4-((4-((1-(4-chlorophenyl)cyclopropyl)amino)-6-(2,2,2-trifluoroethoxy)-1,3,5-triazin-2-yl)amino)benzamido)-2,2-dimethylpropyl)oxalamide] | 0.01 to 10 |
| COC(=O)[C@H](CNC(=O)C(=O)NC1CC(C)CC(C)(C)C1)NC(=O)c1ccc(Nc2nc(NC3(c4ccc(Cl)cc4)CC3)nc(OCC(F)(F)F)n2)cc1 (stereo partly drawn) [Compound 1060] | 0.01 to 10 |
| COc1cccc(C2CC2CNC(=O)C(=O)NCC[C@H](NC(=O)c2ccc(Nc3nc(NC4(c5ccc(Cl)cc5)CC4)nc(OCC(F)(F)F)n3)cc2)C(=O)O)c1 (stereo partly drawn) [Compound 1423] | 0.01 to 10 |
| CC(C)(CNC(=O)C(=O)N1CCc2ccccc2C1)CNC(=O)c1ccc(Nc2nc(NC3(c4ccc(Cl)cc4)CC3)nc(OCC(F)(F)F)n2)cc1 [Compound 1545] | 0.01 to 10 |
| C[C@H]1[C@@H](NC(=O)C(=O)NC[C@H](NC(=O)c2ccc(Nc3nc(NC4(c5ccc(Cl)cc5)CC4)nc(OCC(F)(F)F)n3)cc2)C(=O)O)C[C@H]2C[C@@H]1C2(C)C [Compound 1094] | 0.01 to 10 |
| COc1ccc(NC(=O)C(=O)NC[C@H](NC(=O)c2ccc(Nc3nc(NC4(c5ccc(Cl)cc5)CC4)nc(OCC(F)(F)F)n3)cc2)C(=O)O)cc1 [Compound 1362] | 0.01 to 10 |
| COC(=O)[C@H](CCNC(=O)C(=O)Nc1ccccn1)NC(=O)c1ccc(Nc2nc(NC3(c4ccc(Cl)cc4)CC3)nc(OCC(F)(F)F)n2)cc1 [Compound 1237] | 0.01 to 10 |
| O=C(NC[C@H](NC(=O)c1ccc(Nc2nc(NC3(c4ccc(Cl)cc4)CC3)nc(OCC(F)(F)F)n2)cc1)C(=O)O)C(=O)Nn1cnnc1 [Compound 1350] | 10 to 1000 |
| CC(C)(C)C1CCC(NC(=O)C(=O)NCC[C@H](NC(=O)c2ccc(Nc3nc(NC4(c5ccc(Cl)cc5)CC4)nc(OCC(F)(F)F)n3)cc2)C(=O)O)CC1 (stereo partly drawn) [Compound 1128] | 0.01 to 10 |
| COC(=O)[C@H](CCNC(=O)C(=O)NC1CCNC(=O)C1)NC(=O)c1ccc(Nc2nc(NC3(c4ccc(Cl)cc4)CC3)nc(OCC(F)(F)F)n2)cc1 (stereo partly drawn) [Compound 1072] | 0.01 to 10 |

Same assay, conditions: Hepatitis C virus, Huh-7, 48 h, read-out: Activity (EC50 class), HCV pseudoparticles, Huh7 cells, luciferase 2 days after infection; average of duplicates

| SMILES | EC50 [nM] |
| --- | --- |
| Cc1ccc(NC(=O)C(=O)NCC(C)(C)CNC(=O)c2ccc(Nc3nc(NC4(c5ccc(Cl)cc5)CC4)nc(OCc4ccc(C(C)C)cc4)n3)cc2)cc1 [Compound 3839] | 0.01 to 10 |
| CN(C)CCOc1ccc(NC(=O)C(=O)NCC[C@H](NC(=O)c2ccc(Nc3nc(NC4(c5ccc(Cl)cc5)CC4)nc(OCC(F)(F)F)n3)cc2)C(=O)O)cn1 [Compound 3660] | 0.01 to 10 |
| O=C(NCC[C@H](NC(=O)c1ccc(Nc2nc(NC3(c4ccc(Cl)cc4)CC3)nc(OCC(F)(F)F)n2)cc1)C(=O)O)C(=O)Nc1cccc(C(=O)c2ccccc2)c1 [Compound 3618] | 0.01 to 10 |
| COC(=O)[C@H](CNC(=O)C(=O)Nc1cccc(-c2c[nH]cn2)c1)NC(=O)c1ccc(Nc2nc(NC3(c4ccc(Cl)cc4)CC3)nc(OCC(F)(F)F)n2)cc1 [Compound 3732] | 0.01 to 10 |
| CC(C)(CNC(=O)C(=O)Nc1nc2c(Cl)cccc2s1)CNC(=O)c1ccc(Nc2nc(NC3(c4ccc(Cl)cc4)CC3)nc(OCC(F)(F)F)n2)cc1 [Compound 3815] | 0.01 to 10 |
| COC(=O)[C@H](CNC(=O)C(=O)Nc1ccc(N)nc1)NC(=O)c1ccc(Nc2nc(NC3(c4ccc(Cl)cc4)CC3)nc(OCC(F)(F)F)n2)cc1 [Compound 3705] | 0.01 to 10 |
| O=C(NC[C@H](NC(=O)c1ccc(Nc2nc(NC3(c4ccc(Cl)cc4)CC3)nc(OCC(F)(F)F)n2)cc1)C(=O)O)C(=O)Nc1cccc(-c2ncc[nH]2)c1 [Compound 3765] | 0.01 to 10 |
| COC(=O)[C@H](CNC(=O)C(=O)Nc1cccc(-c2cnco2)c1)NC(=O)c1ccc(Nc2nc(NC3(c4ccc(Cl)cc4)CC3)nc(OCC(F)(F)F)n2)cc1 [Compound 3696] | 0.01 to 10 |

Same assay, conditions: Hepatitis C virus, Huh-7, read-out: Activity (EC50 class), HCV pseudoparticles (genotype 1a, H77C) in Huh7 cells; EC50 expressed as class A/B

| SMILES | EC50 [nM] |
| --- | --- |
| Cc1cc(NC(=O)C(=O)N(C)CCCN(C)C(=O)c2ccc(Nc3nc(NC4(c5ccc(Cl)cc5)CC4)nc(OCC(F)(F)F)n3)cc2)no1 [Compound 3423] | 0.01 to 10 |
| COC(=O)[C@H](CCNC(=O)C(=O)Nc1ccc(OC(F)(F)F)cc1)NC(=O)c1ccc(Nc2nc(NC3(c4ccc(Cl)cc4)CC3)nc(OCC(F)(F)F)n2)cc1 [Compound 3331] | 0.01 to 10 |
| CC(C)(CNC(=O)C(=O)Nc1ccc(C#N)c(Cl)c1)CNC(=O)c1ccc(Nc2nc(NC3(c4ccc(Cl)cc4)CC3)nc(OCC(F)(F)F)n2)cc1 [Compound 3374] | 0.01 to 10 |
| COC(=O)[C@H](CNC(=O)C(=O)Nc1ccc(S(N)(=O)=O)cc1)NC(=O)c1ccc(Nc2nc(NC3(c4ccc(Cl)cc4)CC3)nc(OCC(F)(F)F)n2)cc1 [Compound 3087] | 0.01 to 10 |
| COC(=O)[C@H](CCNC(=O)C(=O)Nc1ccc(-c2nc(OC)cc(OC)n2)cc1)NC(=O)c1ccc(Nc2nc(NC3(c4ccc(Cl)cc4)CC3)nc(OCC(F)(F)F)n2)cc1 [Compound 3302] | 0.01 to 10 |
| CN(CCCN(C)C(=O)c1ccc(Nc2nc(NC3(c4ccc(Cl)cc4)CC3)nc(OCC(F)(F)F)n2)cc1)C(=O)C(=O)NCc1ccc(F)cc1 [Compound 3413] | 10 to 1000 |
| COc1ccc(NC(=O)C(=O)NCC(C)(C)CNC(=O)c2ccc(Nc3nc(NC4(c5ccc(Cl)cc5)CC4)nc(OCC(F)(F)F)n3)cc2F)cc1 [Compound 3557] | 0.01 to 10 |
| CC(C)(CNC(=O)C(=O)Nc1ccc2[nH]nnc2c1)CNC(=O)c1ccc(Nc2nc(NC3(c4ccc(Cl)cc4)CC3)nc(OCC(F)(F)F)n2)cc1 [Compound 3352] | 0.01 to 10 |
| COC(=O)[C@H](CCNC(=O)C(=O)Nc1ccc(-c2ncco2)cc1)NC(=O)c1ccc(Nc2nc(NC3(c4ccc(Cl)cc4)CC3)nc(OCC(F)(F)F)n2)cc1 [Compound 3326] | 0.01 to 10 |
| COC(=O)[C@@H](CCNC(=O)C(=O)Nc1cccc(OCc2ccccc2)c1)NC(=O)c1ccc(Nc2nc(NC3(c4ccc(Cl)cc4)CC3)nc(OCC(F)(F)F)n2)cc1 [Compound 3571] | 0.01 to 10 |
| CC(C)(CNC(=O)C(=O)NCc1ccc(C(=O)c2ccccc2)cc1)CNC(=O)c1ccc(Nc2nc(NC3(c4ccc(Cl)cc4)CC3)nc(OCC(F)(F)F)n2)cc1 [Compound 3404] | 0.01 to 10 |
| COC(=O)[C@@H](CCNC(=O)C(=O)Nc1cccc(C)c1)NC(=O)c1ccc(Nc2nc(NC3(c4ccc(Cl)cc4)CC3)nc(OCC(F)(F)F)n2)cc1 [Compound 3572] | 0.01 to 10 |
| COc1ccc(NC(=O)C(=O)NCC(C)(C)CNC(=O)c2ccc(Nc3nc(NC4(c5ccc(Cl)cc5)CC4)nc(OCC(F)(F)F)n3)cc2)cc1F [Compound 3072] | 0.01 to 10 |
| CC(C)CNC(=O)C(=O)NCC(O)CNC(=O)c1ccc(Nc2nc(NC3(c4ccc(Cl)cc4)CC3)nc(OCC(F)(F)F)n2)cc1 (stereo not drawn) [Compound 3467] | 0.01 to 10 |
| COC(=O)[C@H](CNC(=O)C(=O)Nc1ccc(-n2ccc(C(F)(F)F)n2)cc1)NC(=O)c1ccc(Nc2nc(NC3(c4ccc(Cl)cc4)CC3)nc(OCC(F)(F)F)n2)cc1 [Compound 3098] | 0.01 to 10 |
| COc1ccc(NC(=O)C(=O)NCC(C)(C)CNC(=O)c2ccc(Nc3nc(NC4(c5ccc(Cl)cc5)CC4)nc(OCC(F)(F)F)n3)cc2)c(C)c1 [Compound 3068] | 0.01 to 10 |
| O=C(NCC[C@H](NC(=O)c1ccc(Nc2nc(NC3(c4ccc(Cl)cc4)CC3)nc(OCC(F)(F)F)n2)cc1)C(=O)O)C(=O)Nc1ccc(-c2ncco2)cc1 [Compound 3547] | 0.01 to 10 |
| COc1cc(Nc2nc(NC3(c4ccc(Cl)cc4)CC3)nc(OCC(F)(F)F)n2)ccc1C(=O)NCC(C)(C)CNC(=O)C(N)=O [Compound 3387] | 0.01 to 10 |
| CC(C)(CNC(=O)c1ccc(Nc2nc(NC3(c4ccc(Cl)cc4)CC3)nc(OCC(F)(F)F)n2)cc1)NC(=O)C(=O)Nc1ccc(F)cc1F [Compound 3438] | 0.01 to 10 |
